Source: the NIST ThermoML archive (doi:10.1016/j.fluid.2012.11.009)
“And” between values parts separate entries of the source, which are not always exact repeats. Equal entries are not always repeated. ± gives the expanded uncertainty stated by the source.

Details: Liquid, Distillation

CC(O)CNCC(C)O (centres undefined) [N-(2-hydroxypropyl)-2-hydroxy-1-propanamine]
vapor or sublimation pressure (420 K): 2.8 ± 2.4 kPa | vapor or sublimation pressure (422 K): 3 ± 2.4 kPa and 3.1 ± 2.4 kPa | vapor or sublimation pressure (428 K): 4 ± 2.4 kPa and 4.4 ± 2.4 kPa | vapor or sublimation pressure (429 K): 4.1 ± 2.4 kPa | vapor or sublimation pressure (433 K): 4.9 ± 2.4 kPa and 5.1 ± 2.4 kPa | vapor or sublimation pressure (437 K): 5.9 ± 2.5 kPa | vapor or sublimation pressure (440 K): 6.8 ± 2.5 kPa | vapor or sublimation pressure (441 K): 7 ± 2.5 kPa | vapor or sublimation pressure (444 K): 7.8 ± 2.5 kPa and 7.9 ± 2.5 kPa | vapor or sublimation pressure (447 K): 8.9 ± 2.5 kPa | vapor or sublimation pressure (448 K): 9.9 ± 2.5 kPa | vapor or sublimation pressure (449 K): 9.9 ± 2.5 kPa | vapor or sublimation pressure (450 K): 10.1 ± 2.6 kPa | vapor or sublimation pressure (451 K): 10.6 ± 2.5 kPa and 10.8 ± 2.5 kPa | vapor or sublimation pressure (452 K): 10.9 ± 2.6 kPa | vapor or sublimation pressure (453 K): 11.9 ± 2.6 kPa | vapor or sublimation pressure (454 K): 11.8 ± 2.5 kPa and 11.9 ± 2.5 kPa | vapor or sublimation pressure (456 K): 12.9 ± 2.6 kPa | vapor or sublimation pressure (457 K): 13.1 ± 2.6 kPa and 13.9 ± 2.6 kPa | vapor or sublimation pressure (458 K): 13.9 ± 2.7 kPa and 14 ± 2.7 kPa | vapor or sublimation pressure (460 K): 14.9 ± 2.7 kPa | vapor or sublimation pressure (461 K): 15.8 ± 2.6 kPa | vapor or sublimation pressure (464 K): 17.2 ± 2.6 kPa | vapor or sublimation pressure (465 K): 17.9 ± 2.6 kPa
